The numbers were not newly measured in patent US11357716B2, “Sunscreen compositions” (Kobo Products, Inc., priority 2016, dated 2022), which cites them from elsewhere.

For data set [1] the following is noted: Active: BEMT 4%.
The conditions of data set [2]: Active: BEMT 4%. This is another data set of the same source.

In the case of `CCCCC(CC)COc1ccc(-c2nc(-c3ccc(OC)cc3)nc(-c3ccc(OCC(CC)CCCC)cc3O)n2)c(O)c1` (centres unmarked) [BEMT, bis-ethylhexyloxyphenol methoxyphenyl triazine], the SPF in vivo result in data set [1] was “in vivo = 7.3 ± 1.2”. Besides, the UVA-PF in vivo result in data set [2] is “in vivo = 7.6 ± 2.2”.
